Data from US7390829B2, “Alpha-2 adrenergic agonists” (Allergan, Inc., priority 2005, dated 2008).

How the values were obtained:
[1] = molecular target: T1, alpha2A receptor (Homo sapiens, UniProt P08913); assay: Receptor Selection and Amplification Technology (RSAT) assay, α2A; type: cell-based; conditions: relative to brimonidine (standard full agonist), NA = not active at concentrations less than 10 micromolar
T1 construct: expressed in transfected cells; host or cells: NIH-3T3
T1 sequence (P08913 1-465): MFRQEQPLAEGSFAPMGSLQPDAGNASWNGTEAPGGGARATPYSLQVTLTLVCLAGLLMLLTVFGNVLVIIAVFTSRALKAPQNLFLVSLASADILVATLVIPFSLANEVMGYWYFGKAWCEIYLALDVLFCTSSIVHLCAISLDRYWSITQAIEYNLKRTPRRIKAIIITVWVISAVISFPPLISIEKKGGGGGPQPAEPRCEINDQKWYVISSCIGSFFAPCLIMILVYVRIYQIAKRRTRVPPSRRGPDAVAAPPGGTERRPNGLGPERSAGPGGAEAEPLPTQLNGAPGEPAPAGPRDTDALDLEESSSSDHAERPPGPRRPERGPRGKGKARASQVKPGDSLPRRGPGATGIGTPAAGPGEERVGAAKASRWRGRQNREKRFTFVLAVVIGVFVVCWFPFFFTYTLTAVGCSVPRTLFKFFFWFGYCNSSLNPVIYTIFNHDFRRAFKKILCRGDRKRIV
Description: (§1) Receptor Selection and Amplification Technology (RSAT) Assay
(§2) The RSAT assay measures a receptor-mediated loss of contact inhibition that results in selective proliferation of receptor-containing cells in a mixed population of confluent cells. The increase in cell number is assessed with an appropriate transfected marker gene such as β-galactosidase, the activity of which can be easily measured in a 96-well format. Receptors that activate the G protein, Gq, elicit this response. Alpha2 receptors, which normally couple to Gi, activate the RSAT response when coexpressed with a hybrid Gq protein that has a Gi receptor recognition domain, called Gq/i5.
(§3) NIH-3T3 cells are plated at a density of 2×10^6 cells in 15 cm dishes and maintained in Dulbecco's modified Eagle's medium supplemented with 10% calf serum. […] After washing with phosphate-buffered saline, β-galactosidase enzyme activity is determined by adding 200 μl of the chromogenic substrate (consisting of 3.5 mM o-nitrophenyl-β-D-galactopyranoside and 0.5% nonidet P-40 in phosphate buffered saline), incubating overnight at 30° C. and measuring optical density at 420 nm. The absorbance is a measure of enzyme activity, which depends on cell number and reflects a receptor-mediated cell proliferation. […]

[2] = molecular target: T2, alpha2B receptor (Homo sapiens, UniProt P18089); assay: Receptor Selection and Amplification Technology (RSAT) assay, α2B; type: cell-based; conditions: relative to brimonidine (standard full agonist), NA = not active at concentrations less than 10 micromolar
T2 construct: expressed in transfected cells; host or cells: NIH-3T3
T2 sequence (P18089 1-450): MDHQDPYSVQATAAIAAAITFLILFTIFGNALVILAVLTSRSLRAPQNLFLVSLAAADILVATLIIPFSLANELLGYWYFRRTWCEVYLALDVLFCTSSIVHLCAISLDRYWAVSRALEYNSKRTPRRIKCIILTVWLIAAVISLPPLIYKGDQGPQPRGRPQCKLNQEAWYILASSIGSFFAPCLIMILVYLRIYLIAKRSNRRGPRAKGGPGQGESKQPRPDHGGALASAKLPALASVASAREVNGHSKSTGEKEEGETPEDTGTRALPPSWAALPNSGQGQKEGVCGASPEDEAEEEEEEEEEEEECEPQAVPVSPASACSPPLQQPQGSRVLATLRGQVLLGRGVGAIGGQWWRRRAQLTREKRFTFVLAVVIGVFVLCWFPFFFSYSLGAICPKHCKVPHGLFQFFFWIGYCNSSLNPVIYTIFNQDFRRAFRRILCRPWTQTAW
Description: as §1, §2, §3

[3] = molecular target: T3, alpha2C receptor (Homo sapiens, UniProt P18825); assay: Receptor Selection and Amplification Technology (RSAT) assay, α2C; type: cell-based; conditions: relative to brimonidine (standard full agonist), NA = not active at concentrations less than 10 micromolar
T3 construct: expressed in transfected cells; host or cells: NIH-3T3
T3 sequence (P18825 1-462): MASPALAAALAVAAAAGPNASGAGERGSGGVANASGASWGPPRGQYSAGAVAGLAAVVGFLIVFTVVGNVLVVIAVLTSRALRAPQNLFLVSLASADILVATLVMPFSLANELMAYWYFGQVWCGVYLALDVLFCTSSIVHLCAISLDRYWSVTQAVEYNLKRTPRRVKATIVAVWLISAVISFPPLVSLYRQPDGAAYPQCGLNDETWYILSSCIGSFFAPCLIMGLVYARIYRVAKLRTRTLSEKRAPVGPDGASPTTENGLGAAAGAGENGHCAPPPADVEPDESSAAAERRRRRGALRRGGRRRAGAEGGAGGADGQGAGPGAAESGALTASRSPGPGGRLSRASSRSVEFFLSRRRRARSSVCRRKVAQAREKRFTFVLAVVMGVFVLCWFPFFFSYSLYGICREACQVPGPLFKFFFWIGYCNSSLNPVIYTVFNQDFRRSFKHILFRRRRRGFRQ
Description: as §1, §2, §3

[4] = test system: locomotor activity; assay: Sedation model, rats (locomotor/exploratory activity); type: in vivo; conditions: for rat locomotor activity: 30 min following dosing (FIG. 3)
Description: (§4) The utility of alpha2-adrenergic agonists is limited by a range of side effects, particularly sedation and cardiovascular depression. The sedative activity of the compounds is assessed by measuring their ability to reduce the exploratory activity of mice and rats when placed in a dark chamber 30 min following dosing. The animal's activity is determined automatically by placing it in a digicom analyzer chamber (Omnitech Electronic). These chambers have photocells criss-crossing the box that are broken as the animal moves around. The computer analyzes this movement and records total activity over a 5-min time period. […] This represents greater than a 300-fold margin of safety (FIG. 4).

[5] = test system: locomotor activity; assay: Sedation model, mice (locomotor/exploratory activity); type: in vivo; conditions: oral dose of 3 mg/kg
Description: as §4

Question: Which “Intrinsic activity α2A” value [1] does the source give for OCC1=CCC[C@@H](Cc2c[nH]c(=S)[nH]2)C1 (single isomer, unassigned) [Compound 5] here?
Answer: 0.9

Question: And the “Intrinsic activity α2B” value [2]?
Answer: 1.0

Question: And the “Intrinsic activity α2C” value [3]?
Answer: 1.1

Question: With OCC1=CCCC(Cc2c[nH]c(=S)[nH]2)C1 (stereo not drawn) [Compound 1, 4-(3-Hydroxymethyl-cyclohex-3-enylmethyl)-1,3-dihydro-imidazole-2-thione] as the molecule, how does the “sedation / locomotor activity, rats” value ([4]; general statement (FIG. 3)) read?
Answer: does not sedate

Question: And the rat locomotor activity ([4]; intraperitoneal doses up to at least 3 mg/kg)?
Answer: did not decrease

Question: And the margin of safety ([4]; non-sedating dose in rats (ip 3 mg/kg, oral 10 mg/kg) versus active dose)?
Answer: ≥ 30 fold

Question: And the rat locomotor activity ([4]; oral doses up to at least 10 mg/kg)?
Answer: did not decrease

Question: How did the “sedation, rats” value ([4]; oral dose of 3 mg/kg) turn out when O=C(CC1CCCC1)OCC1=CCCC(Cc2c[nH]c(=S)[nH]2)C1 (stereo not drawn) [Compound 3, cyclopentyl-acetic acid 5-(2-thioxo-2,3-dihydro-1H-imidazol-4-ylmethyl)-cyclohex-1-enylmethyl ester] was run?
Answer: did not sedate

Question: And the “sedation, mice” value [5]?
Answer: did not sedate
